Biological target: T1, α4β1 integrin (Homo sapiens, UniProt P05556+P13612)
T1 construct: Ramos cells fluorescently labeled with calcein; endogenous in cells; host or cells: Ramos cells
Assay: Inhibition of adhesion of calcein-labeled Ramos cells to CS1 (fibronectin) peptide-conjugated ovalbumin
Format: cell-based
Settings: for inhibition at 100 µM: Ramos, compound at a concentration of 100 μM, read-out: % A (percent inhibition of cell adhesion); for IC50: dose required to give 50% inhibition, Ramos cell adhesion to CS1-ovalbumin, 30 minutes at 37° C
Protocol: The ability of compounds of the present invention to inhibit binding is described in detail hereinafter in the Examples by a procedure in which a 26-amino acid peptide containing the CS1 sequence of fibroncctin with an N-terminal Cys was coupled to maleimide activated ovalbumin. Ovalbumin and CS1 conjugated ovalbumin were coated onto 96-well polystyrene plates at 5 μg/ml in TBS (50 mM Tris, pH 7.5; 150 mM NaCl) at 4° C. for 16 hours. The plates were washed three times with TBS and blocked with TBS containing 3% BSA at room temperature for 4 hours. Blocked plates were washed three times in binding buffer (TBS; 1 mM MgCl2; 1 mM CaCl2; 1 mM MnCl2) prior to assay. Ramos cells fluorescently labeled with calcein AMC-3099 were resuspended in binding buffer (10^7 cells/ml) and diluted 1:2 with same buffer with or without compound. The cells were added immediately to the wells (2.5×10^5 cells/well) and incubated for 30 minutes at 37° C. Following three washes with binding buffer, adherent cells were lysed and quantitated using a fluorometer.
IC50 is defined as the dose required to give 50% inhibition. The lower the IC50 value and the greater the percentage of inhibition, the more efficient the compound is at prevention of cell adhesion. A stands for inhibition in Table 1, and the percent inhibition indicates the inhibition of cell adhesion when compound is included in the assay at a concentration of 100 μM.

T1 sequence (P13612 34-1032): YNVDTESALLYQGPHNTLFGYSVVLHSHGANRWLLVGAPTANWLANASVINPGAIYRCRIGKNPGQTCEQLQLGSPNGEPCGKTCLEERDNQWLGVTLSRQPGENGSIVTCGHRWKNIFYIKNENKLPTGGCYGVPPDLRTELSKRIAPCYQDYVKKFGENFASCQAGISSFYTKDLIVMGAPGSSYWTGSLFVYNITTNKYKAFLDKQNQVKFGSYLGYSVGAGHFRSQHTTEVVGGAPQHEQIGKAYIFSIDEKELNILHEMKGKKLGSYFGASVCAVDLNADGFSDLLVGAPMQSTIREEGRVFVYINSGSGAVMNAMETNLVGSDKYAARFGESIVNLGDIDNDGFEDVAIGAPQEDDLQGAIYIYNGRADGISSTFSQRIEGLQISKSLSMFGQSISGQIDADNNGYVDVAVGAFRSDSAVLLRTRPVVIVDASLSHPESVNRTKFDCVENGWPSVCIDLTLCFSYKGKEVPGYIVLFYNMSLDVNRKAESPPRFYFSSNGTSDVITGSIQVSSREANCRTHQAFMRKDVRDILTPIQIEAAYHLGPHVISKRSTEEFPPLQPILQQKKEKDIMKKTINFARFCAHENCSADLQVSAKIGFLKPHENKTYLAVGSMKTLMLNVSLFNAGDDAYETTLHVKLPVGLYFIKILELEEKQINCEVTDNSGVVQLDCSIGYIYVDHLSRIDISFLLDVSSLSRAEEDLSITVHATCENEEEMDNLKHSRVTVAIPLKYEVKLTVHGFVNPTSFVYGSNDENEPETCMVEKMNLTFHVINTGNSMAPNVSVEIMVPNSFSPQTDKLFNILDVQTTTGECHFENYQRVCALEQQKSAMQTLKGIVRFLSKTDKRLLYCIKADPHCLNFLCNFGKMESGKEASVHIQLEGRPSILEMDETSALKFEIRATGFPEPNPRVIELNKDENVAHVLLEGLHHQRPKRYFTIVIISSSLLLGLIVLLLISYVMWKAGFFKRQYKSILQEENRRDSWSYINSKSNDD
T1 sequence (P05556 21-798): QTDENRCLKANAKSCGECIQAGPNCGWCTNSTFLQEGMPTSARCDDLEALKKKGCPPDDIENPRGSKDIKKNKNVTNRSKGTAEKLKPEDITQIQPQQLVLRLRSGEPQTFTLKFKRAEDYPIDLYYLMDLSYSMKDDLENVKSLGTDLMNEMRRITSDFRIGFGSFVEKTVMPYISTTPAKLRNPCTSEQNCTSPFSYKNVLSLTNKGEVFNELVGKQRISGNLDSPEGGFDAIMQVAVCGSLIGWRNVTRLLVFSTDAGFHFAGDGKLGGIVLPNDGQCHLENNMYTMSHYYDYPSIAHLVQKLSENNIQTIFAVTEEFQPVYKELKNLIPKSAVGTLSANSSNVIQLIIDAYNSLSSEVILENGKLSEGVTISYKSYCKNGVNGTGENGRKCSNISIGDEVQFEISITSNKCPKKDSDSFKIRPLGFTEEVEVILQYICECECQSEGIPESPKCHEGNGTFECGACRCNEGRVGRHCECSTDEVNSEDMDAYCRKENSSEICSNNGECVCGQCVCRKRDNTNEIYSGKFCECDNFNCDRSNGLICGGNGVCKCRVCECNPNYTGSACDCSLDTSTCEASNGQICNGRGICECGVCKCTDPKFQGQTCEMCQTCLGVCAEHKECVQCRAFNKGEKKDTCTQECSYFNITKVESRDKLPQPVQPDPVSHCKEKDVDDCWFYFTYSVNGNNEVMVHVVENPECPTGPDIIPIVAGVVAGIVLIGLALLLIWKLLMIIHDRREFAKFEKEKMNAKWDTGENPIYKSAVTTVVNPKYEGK

Structure (SMILES)	inhibition at 100 µM (Table 1)	IC50 (Table 1)	IC50 (Table 2)
O=C(O)C[C@H](NC(=O)O[C@@H](CSCc1ccccc1)CSc1ccccc1)c1ccc2c(c1)OCO2 [(3S)-3-(1,3-benzodioxol-5-yl)-3-{[({(1S)-2-(benzylthio)-1-[(phenylthio)methyl]ethyl}oxy)carbonyl]amino}propanoic acid]	100%	3000 nM	–
COC(=O)NCCC[C@@H](CSc1ccccc1)NC(=O)N[C@@H](CC(=O)O)c1ccc2c(c1)OCO2 [(8S,12S)-12-(1,3-benzodioxol-5-yl)-3,10-dioxo-8-((phenylsulfanyl)methyl)-2-oxa-4,9,11-triazatetradecan-14-oic acid]	100%	2000 nM	–
CC(C)[C@@H](CSCCCc1ccccc1)NC(=O)N[C@@H](CC(=O)O)c1ccc2c(c1)OCO2 [(3S)-3-(1,3-benzodioxol-5-yl)-3-({[((1S)-2-methyl-1-{[(3-phenylpropyl)sulfanyl]methyl}propyl)amino]carbonyl}amino)propanoic acid]	99%	20000 nM	–
Cc1ccccc1CNc1ccc(CNC(=O)[C@H](CCCCNC(=O)OCc2ccccc2)NC(=O)N[C@@H](CC(=O)O)c2ccc3c(c2)OCO3)cc1 [(9S,13S)-13-(1,3-benzodioxol-5-yl)-9-[({4-[(2-methylbenzyl)amino]benzyl}amino)carbonyl]-3,11-dioxo-1-phenyl-2-oxa-4,10,12-triazapentadecan-15-oic acid]	100%	0.4 nM	–
CSCC[C@@H](CSc1cccc(NS(C)(=O)=O)c1)NC(=O)N[C@@H](CC(=O)O)c1ccc2c(c1)OCO2 [(3S)-3-(1,3-benzodioxol-5-yl)-3-[({[(1S)-1-[({3-[(methylsulfonyl)amino]phenyl}thio)methyl]-3-(methylthio)propyl]amino}carbonyl)amino]propanoic acid]	100%	400 nM	–
O=C(O)C[C@H](NC(=O)N[C@H](COCc1ccccc1)CSCc1ccccc1)c1ccc2c(c1)OCO2 [(3S)-3-(1,3-benzodioxol-5-yl)-3-{[({(1R)-2-(benzyloxy)-1-[(benzylthio)methyl]ethyl}amino)carbonyl]amino}propanoic acid]	100%	1000 nM	–
CCSC[C@@H](CSc1ccccc1)OC(=O)N[C@@H](CC(=O)O)c1ccc2c(c1)OCO2 [(3S)-3-(1,3-benzodioxol-5-yl)-3-{[({(1S)-2-(ethylthio)-1-[(phenylthio)methyl]ethyl}oxy)carbonyl]amino}propanoic acid]	100%	1000 nM	–
COC(=O)NCCCC[C@H](NC(=O)N[C@@H](CC(=O)O)c1ccc2c(c1)OCO2)C(=O)NCCc1ccc(O)cc1 [(9S,13S)-13-(1,3-benzodioxol-5-yl)-9-{[(4-hydroxyphenethyl)amino]carbonyl}-3,11-dioxo-2-oxa-4,10,12-triazapentadecan-15-oic acid]	100%	6000 nM	–
CCCCCCCCSC[C@@H](CSc1ccccc1)NC(=O)N[C@@H](CC(=O)O)c1ccc2c(c1)OCO2 [(3S)-3-(1,3-benzodioxol-5-yl)-3-{[({(1S)-2-(octylsulfanyl)-1-[(phenylsulfanyl)methyl]ethyl}amino)carbonyl]amino}propanoic acid]	98%	5000 nM	–
CSCC[C@@H](CSc1ccc(NC(=O)Nc2ccccc2C)cc1)NC(=O)N[C@@H](CC(=O)O)c1ccc2c(c1)OCO2 [(3S)-3-(1,3-benzodioxol-5-yl)-3-{[({(1S)-3-(methylsulfanyl)-1-[({4-[(2-toluidinocarbonyl)amino]phenyl}sulfanyl)methyl]propyl}amino)carbonyl]amino}propanoic acid]	100%	0.9 nM	–
CCCC[C@H](NC(=O)N[C@@H](CC(=O)O)c1ccc2c(c1)OCO2)C(=O)NCc1cccs1 [Compound 34, (3S)-3-(1,3-benzodioxol-5-yl)-3-([((1S)-1-[(2-thienylmethyl)amino]carbonylpentyl)amino]carbonylamino)propanoic acid]	–	–	250 nM
CCCC[C@H](NC(=O)N[C@@H](CC(=O)O)c1ccc2c(c1)OCO2)C(=O)Nc1ccc(C(C)=O)cc1 [Compound 36, 3-(3S)-3-(1,3-benzodioxol-5-yl)-3-([((1S)-1-[(4-acetylphenyl)amino]carbonylpentyl)amino]carbonylamino)propanoic acid]	–	–	1000 nM
CCCC[C@H](NC(=O)N[C@@H](CC(=O)O)c1ccc2c(c1)OCO2)C(=O)NCc1ccc(OCc2ccccc2C)c(OC)c1 [Compound 38, 3-(3S)-3-(1,3-benzodioxol-5-yl)-3-([((1S)-1-[(4-(2-methylbenzyloxy)-3-methoxybenzyl)amino]carbonylpentyl)amino]carbonylamino)propanoic acid]	–	–	20 nM
CC(C)C[C@@H](CSc1ccccc1)NC(=O)N[C@@H](CC(=O)O)c1ccc2c(c1)OCO2 [(3S)-3-(1,3-benzodioxol-5-yl)-3-{[({(1S)-3-methyl-1-[(phenylsulfanyl)methyl]butyl}amino)carbonyl]amino}propanoic acid]	100%	2000 nM	–
CC(C)[C@@H](CSCc1ccccc1)NC(=O)NC(CC(=O)O)c1ccc2c(c1)OCO2 (stereo partly drawn) [3-(1,3-benzodioxol-5-yl)-3-{[({(1S)-1-[(benzylsulfanyl)methyl]-2-methylpropyl}amino)carbonyl]amino}propanoic acid]	100%	10000 nM	–
CCCC[C@H](NC(=O)N[C@@H](CC(=O)O)c1ccc2c(c1)OCO2)C(=O)NCc1ccc(NCc2nccs2)cc1 [Compound 40, 3(3S)-3-(1,3-benzodioxol-5-yl)-3-([((1S)-1-[(4-(1,3-thiazol-2-ylmethyl)aminobenzyl)amino]carbonylpentyl)amino]carbonylamino)propanoic acid]	–	–	120 nM
O=C(O)C[C@H](NC(=O)N[C@@H](CCCCNC(=O)OCc1ccccc1)C(=O)NCc1cccs1)C(=O)O [(2S)-2-({[((1S)-5-{[(benzyloxy)carbonyl]amino}-1-{[(2-thienylmethyl)amino]carbonyl}pentyl)amino]carbonyl}amino)butanedioic acid]	89%	45000 nM	–
CSCC[C@@H](CSc1ccc(N)cc1)NC(=O)N[C@@H](CC(=O)O)c1ccc2c(c1)OCO2 [(3S)-3-[({[(1S)-1-{[(4-aminophenyl)sulfanyl]methyl}-3-(methylsulfanyl)propyl]amino}carbonyl)amino]-3-(1,3-benzodioxol-5-yl)propanoic acid]	100%	3000 nM	–
CCCC[C@H](NC(=O)N[C@@H](CC(=O)O)c1ccc2c(c1)OCO2)C(=O)Nc1ccccc1C(C)=O [Compound 35, (3S)-3-(1,3-benzodioxol-5-yl)-3-([((1S)-1-[(2-acetylphenyl)amino]carbonylpentyl)amino]carbonylamino)propanoic acid]	–	–	350 nM
CC(C)[C@H](CSCc1ccccc1)NC(=O)NC(CC(=O)O)c1ccc2c(c1)OCO2 (stereo partly drawn) [3-(1,3-benzodioxol-5-yl)-3-{[({(1R)-1-[(benzylsulfanyl)methyl]-2-methylpropyl}amino)carbonyl]amino}propanoic acid]	83%	40000 nM	–
COC(=O)NCCCC[C@H](NC(=O)N[C@@H](CC(=O)O)c1ccc2c(c1)OCO2)C(=O)NCc1ccc(N)cc1 [(9S,13S)-9-{[(4-aminobenzyl)amino]carbonyl}-13-(1,3-benzodioxol-5-yl)-3,11-dioxo-2-oxa-4,10,12-triazapentadecan-15-oic acid]	100%	300 nM	–
O=C(O)C[C@H](NC(=O)N[C@@H](CCCO)CSc1ccccc1)c1ccc2c(c1)OCO2 [(3S)-3-(1,3-benzodioxol-5-yl)-3-{[({(1S)-4-hydroxy-1-[(phenylthio)methyl]butyl}amino)carbonyl]amino}propanoic acid]	100%	2000 nM	–
CC(C)[C@@H](CS(=O)(=O)Cc1ccccc1)NC(=O)NC(CC(=O)O)c1ccc2c(c1)OCO2 (stereo partly drawn) [3-(1,3-benzodioxol-5-yl)-3-{[({(1S)-1-[(benzylsulfonyl)methyl]-2-methylpropyl}amino)carbonyl]amino}propanoic acid]	92%	35000 nM	–
CSCC[C@@H](CSc1ccc(NS(C)(=O)=O)cc1)NC(=O)N[C@@H](CC(=O)O)c1ccc2c(c1)OCO2 [(3S)-3-(1,3-benzodioxol-5-yl)-3-{[({(1S)-3-(methylsulfanyl)-1-[({4-[(methylsulfonyl)amino]phenyl}sulfanyl)methyl]propyl}amino)carbonyl]amino}propanoic acid]	100%	500 nM	–
CC(C)[C@@H](CSCCc1ccccc1)NC(=O)N[C@@H](CC(=O)O)c1ccc2c(c1)OCO2 [(3S)-3-(1,3-benzodioxol-5-yl)-3-{[({(1S)-2-methyl-1-[(phenethylsulfanyl)methyl]propyl}amino)carbonyl]amino}propanoic acid]	98%	20000 nM	–
CC(C)(C)OC(=O)C[C@H](NC(=O)N[C@@H](CC(=O)O)c1ccc2c(c1)OCO2)c1ccc2c(c1)OCO2 [(3S)-3-(1,3-benzodioxol-5-yl)-3-[({[(1S)-1-(1,3-benzodioxol-5-yl)-3-(tert-butoxy)-3-oxopropyl]amino}carbonyl)amino]propanoic acid]	100%	4000 nM	–
